# Experimental data reported in the supplement of paper PMC10307832.
# Tests used:
# Experiment in all cases: relative viability (nuclei count vs DMSO), 5 days (fraction); higher = more cells survive
# [1] = compound: Cc1nc(Nc2ncc(C(=O)Nc3c(C)cccc3Cl)s2)cc(N2CCN(CCO)CC2)n1 [Dasatinib] + COc1cc2c(Oc3ccc(NC(=O)C4(C(=O)Nc5ccc(F)cc5)CC4)cc3F)ccnc2cc1OCCCN1CCOCC1 [Foretinib] (partner 0.25 µM)
# Summary of the method: (§1)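 Relative viability was taken as the ratio of nuclei in treated wells to nuclei in vehicle wells. Lung cancer cell lines in 1536-well plates received compounds by pin tool one day after seeding, either one drug alone or a fixed anchor-drug dose plus five library-drug doses (not always all listed) in √10 steps. Nuclei were counted on 4× images after 5 days of treatment, and values are medians of duplicate plates.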
# [2] = compound: Cc1ccc(C(=O)Nc2cccc(C(F)(F)F)c2)cc1Nc1cncc(C(N)=O)c1 [ALW-II-49-7] + C[C@@H](Oc1cc(-c2cnn(C3CCNCC3)c2)cnc1N)c1c(Cl)ccc(F)c1Cl [Crizotinib] (partner 1 µM)
# Summary of the method: as §1
# [3] = compound: C1CC1C(=O)NC2=NNC3=C2C=CC(=C3)C4=CC(=CC=C4)C(=O)NC5CC5 [XMD13-2] + CC(=O)Nc1cccc(-n2c(=O)n(C3CC3)c(=O)c3c(Nc4ccc(I)cc4F)n(C)c(=O)c(C)c32)c1 [Trametinib] (partner 0.02 µM)
# Summary of the method: as §1
# [4] = compound: C1CC1C(=O)NC2=NNC3=C2C=CC(=C3)C4=CC(=CC=C4)C(=O)NC5CC5 [XMD13-2] + CCNC(=O)c1noc(-c2cc(C(C)C)c(O)cc2O)c1-c1ccc(CN2CCOCC2)cc1 [Luminespib] (partner 0.01 µM)
# Summary of the method: as §1
cell line,measurement,setting,value
UMC-11,relative viability,[1]; first compound 0.005 µM,0.912
same,relative viability,[1]; first compound 0.01581 µM,0.699
same,relative viability,[1]; first compound 0.05 µM,0.696
same,relative viability,[1]; first compound 0.1581 µM,0.379
same,relative viability,[1]; first compound 0.5 µM,0.276
same,relative viability,[2]; first compound 0.08 µM,0.531
same,relative viability,[2]; first compound 0.253 µM,0.613
same,relative viability,[2]; first compound 2.53 µM,0.755
same,relative viability,[2]; first compound 8 µM,0.553
same,relative viability,[3]; first compound 0.05 µM,0.908
same,relative viability,[3]; first compound 0.1581 µM,0.708
same,relative viability,[3]; first compound 0.5 µM,0.726
same,relative viability,[3]; first compound 1.581 µM,0.685
same,relative viability,[3]; first compound 5 µM,0.513
same,relative viability,[4]; first compound 0.05 µM,1.11
same,relative viability,[4]; first compound 0.1581 µM,1.02
same,relative viability,[4]; first compound 0.5 µM,0.992
same,relative viability,[4]; first compound 1.581 µM,0.961
same,relative viability,[4]; first compound 5 µM,0.974
